Source: PMC11981937 (Nature, 2025)
Values joined by “and” are separate entries in the source; they are usually repeats but may differ in a detail not shown here. Equal entries are not always repeated.

How the values were obtained:
[1] = In vivo mortality (stray panel in source data sheet Fig. 3d)
[2] = type: in vivo, Syrian golden hamster; settings: Molnupiravir 200 mpk BID, pre-exposure
SARS-CoV-2 B1 = type: in vivo, Syrian golden hamster; settings: pre-exposure

SMILES: C[C@@]1(O)[C@H](O)[C@@H](CO)O[C@H]1n1ccc(N)nc1=O [2'CMC, reference compound]
- % Survival ([1]; 2'CMC, d p.i. 0): 100%
- % Survival ([1]; 2'CMC, d p.i. 1): 100%
- % Survival ([1]; 2'CMC, d p.i. 2): 100%
- % Survival ([1]; 2'CMC, d p.i. 3): 100%
- % Survival ([1]; 2'CMC, d p.i. 4): 100%
- % Survival ([1]; 2'CMC, d p.i. 5): 100%
- % Survival ([1]; 2'CMC, d p.i. 6): 100%
- % Survival ([1]; 2'CMC, d p.i. 7): 100%
- % Survival ([1]; 2'CMC, d p.i. 8): 100%
- % Survival ([1]; 2'CMC, d p.i. 9): 100%
- % Survival ([1]; 2'CMC, d p.i. 10): 100%
- % Survival ([1]; 2'CMC, d p.i. 11): 100%
- % Survival ([1]; 2'CMC, d p.i. 12): 100%
- % Survival ([1]; 2'CMC, d p.i. 13): 90%
- % Survival ([1]; 2'CMC, d p.i. 14): 80%
- % Survival ([1]; 2'CMC, d p.i. 15): 80%
- % Survival ([1]; 2'CMC, d p.i. 16): 80%
- % Survival ([1]; 2'CMC, d p.i. 17): 80%
- % Survival ([1]; 2'CMC, d p.i. 18): 60%
- % Survival ([1]; 2'CMC, d p.i. 19): 60%
- % Survival ([1]; 2'CMC, d p.i. 20): 60%
- % Survival ([1]; 2'CMC, d p.i. 21): 60%
- % Survival ([1]; 2'CMC, d p.i. 22): 60%
- % Survival ([1]; 2'CMC, d p.i. 23): 60%
- % Survival ([1]; 2'CMC, d p.i. 24): 50%
- % Survival ([1]; 2'CMC, d p.i. 25): 50%

SMILES: COc1cc(N[C@H](C(=O)c2c[nH]c3ccc(OC(F)(F)F)cc23)c2ccc(Cl)cc2OC)cc(S(C)(=O)=O)c1 [JNJ-1802]
- % Survival ([1]; 802R_0.3, BID, d p.i. 0): 100%
- % Survival ([1]; 802R_0.3, BID, d p.i. 1): 100%
- % Survival ([1]; 802R_0.3, BID, d p.i. 2): 100%
- % Survival ([1]; 802R_0.3, BID, d p.i. 3): 100%
- % Survival ([1]; 802R_0.3, BID, d p.i. 4): 100%
- % Survival ([1]; 802R_0.3, BID, d p.i. 5): 100%
- % Survival ([1]; 802R_0.3, BID, d p.i. 6): 100%
- % Survival ([1]; 802R_0.3, BID, d p.i. 7): 100%
- % Survival ([1]; 802R_0.3, BID, d p.i. 8): 100%
- % Survival ([1]; 802R_0.3, BID, d p.i. 9): 100%
- % Survival ([1]; 802R_0.3, BID, d p.i. 10): 100%
- % Survival ([1]; 802R_0.3, BID, d p.i. 11): 100%
- % Survival ([1]; 802R_0.3, BID, d p.i. 12): 100%
- % Survival ([1]; 802R_0.3, BID, d p.i. 13): 100%
- % Survival ([1]; 802R_0.3, BID, d p.i. 14): 100%
- % Survival ([1]; 802R_0.3, BID, d p.i. 15): 100%
- % Survival ([1]; 802R_0.3, BID, d p.i. 16): 100%
- % Survival ([1]; 802R_0.3, BID, d p.i. 17): 90%
- % Survival ([1]; 802R_0.3, BID, d p.i. 18): 90%
- % Survival ([1]; 802R_0.3, BID, d p.i. 19): 90%
- % Survival ([1]; 802R_0.3, BID, d p.i. 20): 90%
- % Survival ([1]; 802R_0.3, BID, d p.i. 21): 90%
- % Survival ([1]; 802R_0.3, BID, d p.i. 22): 90%
- % Survival ([1]; 802R_0.3, BID, d p.i. 23): 90%
- % Survival ([1]; 802R_0.3, BID, d p.i. 24): 90%
- % Survival ([1]; 802R_0.3, BID, d p.i. 25): 90%
- % Survival ([1]; 802R_1, BID, d p.i. 0): 100%
- % Survival ([1]; 802R_1, BID, d p.i. 1): 100%
- % Survival ([1]; 802R_1, BID, d p.i. 2): 100%
- % Survival ([1]; 802R_1, BID, d p.i. 3): 100%
- % Survival ([1]; 802R_1, BID, d p.i. 4): 100%
- % Survival ([1]; 802R_1, BID, d p.i. 5): 100%
- % Survival ([1]; 802R_1, BID, d p.i. 6): 100%
- % Survival ([1]; 802R_1, BID, d p.i. 7): 100%
- % Survival ([1]; 802R_1, BID, d p.i. 8): 100%
- % Survival ([1]; 802R_1, BID, d p.i. 9): 100%
- % Survival ([1]; 802R_1, BID, d p.i. 10): 100%
- % Survival ([1]; 802R_1, BID, d p.i. 11): 100%
- % Survival ([1]; 802R_1, BID, d p.i. 12): 100%
- % Survival ([1]; 802R_1, BID, d p.i. 13): 100%
- % Survival ([1]; 802R_1, BID, d p.i. 14): 100%
- % Survival ([1]; 802R_1, BID, d p.i. 15): 100%
- % Survival ([1]; 802R_1, BID, d p.i. 16): 100%
- % Survival ([1]; 802R_1, BID, d p.i. 17): 100%
- % Survival ([1]; 802R_1, BID, d p.i. 18): 100%
- % Survival ([1]; 802R_1, BID, d p.i. 19): 100%
- % Survival ([1]; 802R_1, BID, d p.i. 20): 100%
- % Survival ([1]; 802R_1, BID, d p.i. 21): 100%
- % Survival ([1]; 802R_1, BID, d p.i. 22): 100%
- % Survival ([1]; 802R_1, BID, d p.i. 23): 100%
- % Survival ([1]; 802R_1, BID, d p.i. 24): 100%
- % Survival ([1]; 802R_1, BID, d p.i. 25): 100%
- % Survival ([1]; 802R_3, BID, d p.i. 0): 100%
- % Survival ([1]; 802R_3, BID, d p.i. 1): 100%
- % Survival ([1]; 802R_3, BID, d p.i. 2): 100%
- % Survival ([1]; 802R_3, BID, d p.i. 3): 100%
- % Survival ([1]; 802R_3, BID, d p.i. 4): 100%
- % Survival ([1]; 802R_3, BID, d p.i. 5): 100%
- % Survival ([1]; 802R_3, BID, d p.i. 6): 100%
- % Survival ([1]; 802R_3, BID, d p.i. 7): 100%
- % Survival ([1]; 802R_3, BID, d p.i. 8): 100%
- % Survival ([1]; 802R_3, BID, d p.i. 9): 100%
- % Survival ([1]; 802R_3, BID, d p.i. 10): 100%
- % Survival ([1]; 802R_3, BID, d p.i. 11): 100%
- % Survival ([1]; 802R_3, BID, d p.i. 12): 100%
- % Survival ([1]; 802R_3, BID, d p.i. 13): 100%
- % Survival ([1]; 802R_3, BID, d p.i. 14): 100%
- % Survival ([1]; 802R_3, BID, d p.i. 15): 100%
- % Survival ([1]; 802R_3, BID, d p.i. 16): 100%
- % Survival ([1]; 802R_3, BID, d p.i. 17): 100%
- % Survival ([1]; 802R_3, BID, d p.i. 18): 100%
- % Survival ([1]; 802R_3, BID, d p.i. 19): 100%
- % Survival ([1]; 802R_3, BID, d p.i. 20): 100%
- % Survival ([1]; 802R_3, BID, d p.i. 21): 100%
- % Survival ([1]; 802R_3, BID, d p.i. 22): 90%
- % Survival ([1]; 802R_3, BID, d p.i. 23): 90%
- % Survival ([1]; 802R_3, BID, d p.i. 24): 80%
- % Survival ([1]; 802R_3, BID, d p.i. 25): 80%
- % Survival ([1]; 802R_10, BID, d p.i. 0): 100%
- % Survival ([1]; 802R_10, BID, d p.i. 1): 100%
- % Survival ([1]; 802R_10, BID, d p.i. 2): 100%
- % Survival ([1]; 802R_10, BID, d p.i. 3): 100%
- % Survival ([1]; 802R_10, BID, d p.i. 4): 100%
- % Survival ([1]; 802R_10, BID, d p.i. 5): 100%
- % Survival ([1]; 802R_10, BID, d p.i. 6): 100%
- % Survival ([1]; 802R_10, BID, d p.i. 7): 100%
- % Survival ([1]; 802R_10, BID, d p.i. 8): 100%
- % Survival ([1]; 802R_10, BID, d p.i. 9): 100%
- % Survival ([1]; 802R_10, BID, d p.i. 10): 100%
- % Survival ([1]; 802R_10, BID, d p.i. 11): 100%
- % Survival ([1]; 802R_10, BID, d p.i. 12): 100%
- % Survival ([1]; 802R_10, BID, d p.i. 13): 100%
- % Survival ([1]; 802R_10, BID, d p.i. 14): 100%
- % Survival ([1]; 802R_10, BID, d p.i. 15): 80%
- % Survival ([1]; 802R_10, BID, d p.i. 16): 80%
- % Survival ([1]; 802R_10, BID, d p.i. 17): 80%
- % Survival ([1]; 802R_10, BID, d p.i. 18): 80%
- % Survival ([1]; 802R_10, BID, d p.i. 19): 80%
- % Survival ([1]; 802R_10, BID, d p.i. 20): 80%
- % Survival ([1]; 802R_10, BID, d p.i. 21): 80%
- % Survival ([1]; 802R_10, BID, d p.i. 22): 80%
- % Survival ([1]; 802R_10, BID, d p.i. 23): 80%
- % Survival ([1]; 802R_10, BID, d p.i. 24): 80%
- % Survival ([1]; 802R_10, BID, d p.i. 25): 80%

SMILES: CC(C)C(=O)OC[C@H]1O[C@@H](n2ccc(NO)nc2=O)[C@H](O)[C@@H]1O [molnupiravir, reference compound]
- % body weight change compared to day 0, Avg ([2]; day 4 vs day 0, group average): 3.04%
- % body weight change compared to day 0 ([2]; day 4 vs day 0, individual animals): 2.6% and 2.4% and 5% and 3% and 2.2%
- Histopathology score, average (SARS-CoV-2 B1; 200 mg/kg/ BID, n=5): 2.10
- Histopathology score, median (SARS-CoV-2 B1; 200 mg/kg/ BID, n=5): 1.50
- Infectious virus in the lung (TCID50/mg), average Log 10 (SARS-CoV-2 B1; 200 mg/kg/ BID, n=5): 4.54 Log 10
- Infectious virus in the lung (TCID50/mg), median Log 10 (SARS-CoV-2 B1; 200 mg/kg/ BID, n=5): 4.21 Log 10
- Viral load (viral RNA) in the lung, average Log 10 (SARS-CoV-2 B1; 200 mg/kg/ BID, n=5): 9.78 Log 10
- Viral load (viral RNA) in the lung, median Log 10 (SARS-CoV-2 B1; 200 mg/kg/ BID, n=5): 9.74 Log 10
- Histopathology score, individual animal (SARS-CoV-2 B1; 200 mg/kg/ BID, 200 mg/kg): 1.5 and 3
- Infectious virus in the lung (TCID50/mg), Log 10, individual animal (SARS-CoV-2 B1; 200 mg/kg/ BID, 200 mg/kg): 4.01 Log 10 and 3.36 Log 10 and 6.13 Log 10 and 4.21 Log 10 and 4.99 Log 10
- Infectious virus in the lung, individual animal (SARS-CoV-2 B1; 200 mg/kg/ BID, 200 mg/kg): 10248.12 TCID50/mg and 2288.60 TCID50/mg and 1353038.68 TCID50/mg and 16040.54 TCID50/mg and 98821.18 TCID50/mg
- Viral load (viral RNA) in the lung, Copy number, individual animal (SARS-CoV-2 B1; 200 mg/kg/ BID, 200 mg/kg): 5.44E+09 and 8.11E+09 and 8.53E+09 and 4.38E+09 and 4.90E+09
- Viral load (viral RNA) in the lung, Log 10, individual animal (SARS-CoV-2 B1; 200 mg/kg/ BID, 200 mg/kg): 9.74 Log 10 and 9.91 Log 10 and 9.93 Log 10 and 9.64 Log 10 and 9.69 Log 10
- decline in antiviral parameters (in words) (SARS-CoV-2 B1; 300 mg per kg BID, reference): not significant
